Test results as given in US20180006232A1, “HETEROCYCLIC COMPOUND, LIGHT-EMITTING ELEMENT, LIGHT-EMITTING DEVICE, ELECTRONIC APPLIANCE, AND LIGHTING DEVICE” (Semiconductor Energy Laboratory Co., Ltd., priority 2014, published 2018).
Read-outs that look alike come from different tables or passages of the source.

Assay: Examination of solubility in organic solvents
Format: physicochemical
Settings: for solubility: organic solvent or mixture, thermodynamic from solid
Excerpt: The heterocyclic compound which is one embodiment of the present invention and used in this example was 2mFBPDBq (sample 1). Note that 2mFBPDBq was synthesized by the synthesis method described in Example 1. In addition, the compound used for comparison was 2mDBTBPDBq-II (comparison sample 2). The purity of each compound was 99.9%. The structural formulae of the compounds are shown below.
The solvents used in this example were the four kinds of solvents: toluene, chloroform, ethyl acetate, and acetone.
A method of examining the solubility of the compound of each sample is described. First, 10 mg of the compound was put into a small bottle and to this was added 1 mL of a solvent. Then, whether the compound was dissolved at room temperature or not was checked. When the compound was not dissolved at room temperature, ultrasonic wave irradiation and then heating using a dryer were performed, so that whether the compound was dissolved was checked.
When the compound was not dissolved after heating, the volume of the solvent was increased to 10 mL, so that whether the compound was dissolved at room temperature was checked. When the compound was not dissolved at room temperature, ultrasonic wave irradiation and then heating using a dryer were performed, so that whether the compound was dissolved was checked.

SMILES | solubility | Solubility in Acetone (acetone, 10 mg compound in 1 mL, then 10 mL, room temperature, then ultrasonic wave irradiation and heating) | Solubility in Chloroform (chloroform, 10 mg compound in 1 mL, then 10 mL, room temperature, then ultrasonic wave irradiation and heating) | Solubility in Ethyl acetate (ethyl acetate, 10 mg compound in 1 mL, then 10 mL, room temperature, then ultrasonic wave irradiation and heating) | solubility (toluene, 10 mg compound in 1 mL, then 10 mL, room temperature, then ultrasonic wave irradiation and heating, read-out: Solubility in Toluene) | Solubility compared with comparison compound 2mDBTBPDBq-II (organic solvents (toluene, chloroform, ethyl acetate, acetone), summary in words)
c1cc(-c2cccc(-c3cccc4c3sc3ccccc34)c2)cc(-c2cnc3c4ccccc4c4ccccc4c3n2)c1 [2mDBTBPDBq-II, 2-[3′-(dibenzothiophen-4-yl)biphenyl-3-yl]dibenzo[f,h]quinoxaline, reference compound] | < 1000 µg/mL |  |  |  |  | 
CC1(C)c2ccccc2-c2ccc(-c3cccc(-c4cccc(-c5cnc6c7ccccc7c7ccccc7c6n5)c4)c3)cc21 [2mFBPDBq, 2-{3-[3-(9,9-dimethylfluoren-2-yl)phenyl]phenyl}dibenzo[f,h]quinoxaline] |  | □ (dissolved at 10 mg/10 mL when heated) | ◯ (dissolved at 10 mg/mL when heated) | □ (dissolved at 10 mg/10 mL when heated) | > 10000 µg/mL | higher solubility
